Assay results as given in patent US11738064B2, “Pharmaceutical composition for preventing and treating eye diseases, containing as active ingredient, fusion protein in which tissue-penetrating peptide and anti-vascular endothelial growth factor preparation are fused” (ILDONG PHARM CO., LTD., priority 2015, dated 2023).

Columns and labels:
[1] = half-dose (250 μg) dropped 6 times at 2 hour intervals in rabbits; cited from earlier work
[2] = Ex-vivo ocular penetration model, extracted eyeballs immersed in FITC-conjugated protein; format: in vitro ADME, C57BL/6 mouse; conditions: confocal microscope; FIG. 8E
Description: The eyeballs were fixed at 4° C. for 4 hours using Davidson's solution (glacial acetic acid:ethyl alcohol:neutralized formalin:distilled water=1:3:2:3), and then the anterior tissue of the conjunctiva was partially cut with scissors, and the retinal metaplasia was minimized in a paraffin slide preparation step. After overnight fixation at 4° C. using 10% (v/v) formalin solution, moisture was removed from the tissues by increasing the concentration of alcohol from low to high concentration using an automatic infiltration machine, followed by transparency with xylene and then paraffin penetration. The paraffin penetration-completed tissue was placed in a base mold to make a paraffin block, and 4 sections were prepared using a microtome. The paraffin sections were unfolded to be attached to slides pre-coated with albumin, poly-L-lysine, and saline in a floating constant-temperature water bath. The tissue slides were deparaffinized and then directly mounted, and then FITC was observed using a confocal microscope to investigate the ocular tissue penetration and distribution.
Thereafter, while unconjugated FITC was removed using PD-10 desalting column, the buffer was changed with PBS, and then the purified product was quantified, and used as a sample for efficacy evaluation.

vascular leakage = experiment: Oxygen-induced retinopathy (OIR) model, vascular leakage (dextran fluorescence extravasation); format: in vivo, C57BL/6 mice; conditions: 10 μg/eye intraocular on P12, evaluated P17; FIG. 11A
Description: (§1) Mice burn by crossbreeding of 7- to 8-week old C57BL/6 purchased from Koatech were used as experimental animals. On day 7 after birth, mice (postnatal day 7, P7) were placed in an oxygen chamber, and the oxygen concentration in the chamber was adjusted and maintained at 75% (hyperoxia) for 5 days (P7 to P11). The illumination in the laboratory was turned on or off every 12 hours and the temperature was maintained at 24±2° C. The mice were fed with free access to feed and drinking water. After 5 days, the mice were exposed to inner air (normoxia) out of the chamber for 5 days (P12-P17) to induce retinal angiogenesis. For drug administration, the mice were randomly divided into five groups (10 mice per group) immediately after the exposure to normoxia on P12, as shown in Table 7. Drugs were administered intraocularly at concentrations appropriate for respective groups using Hamilton syringe (Hamilton, USA). The same amount of vehicle was administered to the OIR group, and 10 μg/eye of ranibizumab was administered as control drug. Subjects with surgical damage caused by drug administration or subjects with lens opacities or the like were excluded from subsequent experiment procedures.
The degree of retinal edema was evaluated on day 17 after birth. […] The amount of fluorescence extravasated out of vessels was quantitatively analyzed using Image J.

macular degeneration = conditions: cited from earlier work
[3] = test system: choroidal neovascularization; experiment: Laser-induced choroidal neovascularization (CNV) model; format: in vivo, Brown Norway (BN) rats; conditions: 100 μg/eye intraocular, 10 days after administration; FIG. 10B
Description: Seven-week old male Brown Norway (BN) rats (SLC Japan, Tokyo, Japan) were acclimated for one week, and then anesthetized by peritoneal injection of pentobarbital sodium (Hanlim Pharm, 25 mg/kg). Thereafter, the pupil was dilated with 1% tropicamide eye drops, and then six photocoagulation spots were formed around the optic nerve head using a diode laser (wavelength, 532 nm; diameter, 100 μm; power, 150 mW; time period, 0.1 sec). The destruction of Bruch's membrane was verified by the formation of characteristic bubbles. The eyeballs with hemorrhage or no bubbles were excluded from the subsequent experimental procedures. Drugs were administered intraocularly at concentrations appropriate for respective groups using Hamilton syringe (Hamilton, USA). The same amount of vehicle was administered to the CNV group, and 100 μg/eye of ranibizumab was administered as control drug. Subjects with surgical damage caused by drug administration or subjects with lens opacities or the like were excluded from subsequent experimental procedures.
The degree of choroidal neovascularization was evaluated 10 days after drug administration. The eyeball of each rat was extracted, and then incised at a region adjacent to the cornea and sclera under a microscope. […] The sizes of subretinal neovascular areas were analyzed using Image J software (NIH, USA).

[4] = test system: retinal neovascularization; experiment: Oxygen-induced retinopathy (OIR) model, retinal neovascularization (isolectin B4, tufts); format: in vivo, C57BL/6 mice; conditions: 10 μg/eye intraocular; FIG. 12B
Description: as §1
In addition, the extent of neovascularization in the retina was also evaluated. […]

[5] = test system: corneal neovascularization; experiment: Corneal neovascularization resistance model; format: in vivo, C57BL/6 mice; conditions: eye drops for 10 days from 10 days after alkaline burn; FIG. 7B
Description: The 6-week old female C57BL/6 mice were used. After anesthesia (Zoletil 40 mg/kg+Rompun 5 mg/kg, IP), the NaOH filter paper was placed on the left eye cornea to induce an alkaline burn for 30 seconds, followed by sufficient washing with 40 ml of PBS, thereby constructing corneal neovascularization animal models. […] Each drug was administered through eye drops at a concentration of 5 mg/ml with 5 μl each time, four times a day for 5 days. After the completion of the administration, the eyeballs were extracted, immersed and fixed in 4% paraformaldehyde solution for one hour, and washed with PBS, and then the cornea was isolated using a dissecting microscope. The isolated cornea was additionally fixed in a 4% paraformaldehyde solution for 12 hours. The fixed cornea was washed with PBS, and subjected to reaction in a blocking buffer (PBS, 0.3% BSA, 0.1% Triton X100) at room temperature for 2 hours. A primary antibody (BD Pharmingen) specific to PECAM-1 (CD31) as a vascular endothelial marker and a primary antibody (Millipore) specific to NG-2 as a pericyte marker were reacted overnight in a refrigerator, and secondary fluorescent antibodies (Alexa Fluor488, Alexa Fluor594, Life Technologies) were reacted at room temperature for 4 hours for tissue staining. […]

[6] = cited from earlier work
VEGF-A = target: T1, VEGF-A (Homo sapiens, UniProt P15692); conditions: designed property, versus ranibizumab; cited from earlier work
T1 sequence (P15692 207-395): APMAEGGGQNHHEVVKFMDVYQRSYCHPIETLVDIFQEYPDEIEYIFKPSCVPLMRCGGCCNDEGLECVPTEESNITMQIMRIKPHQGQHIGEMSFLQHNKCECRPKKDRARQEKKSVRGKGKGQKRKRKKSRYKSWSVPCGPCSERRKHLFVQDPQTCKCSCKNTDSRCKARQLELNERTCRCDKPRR

neuropilin 1 (NRP 1) = experiment: SPR (Biacore 2000) assay of binding ability to neuropilin 1 receptor; conditions: Table 4, receptor NRP 1, read-out: Affinity, KD
Description: First, the affinity to a neuropilin receptor was performed on neuropilin 1 (NRP 1). Specifically, surface plasmon resonance (SPR) was performed using Biacore 2000 (GE Healthcare) in order to investigate the binding ability of TPP to the neuropilin 1 domain. Specifically, each neuropilin 1 domain was diluted in 10 mM Na-acetate buffer (pH 4.0), and fixed on CMS sensor chip (GE Healthcare, USA) at about 1,000 response units (RU). […] After the association/dissociation analysis, the CMS chip was regenerated by allowing buffer (20 mM NaOH, 1M NaCl, pH 10.0) to flow at a flow rate of 30 μl/min for 1 minute.
After the Biacore CMS chip was activated with EDC/NHS mixture, target protein NRP1 was diluted in a fixing buffer (10 mM sodium acetate, pH 5.5), and fixed to final 79 Ru through calculation at Rmax: 200.

Sequence of neuropilin 1 (NRP 1) (O14786 273-586 limits assumed): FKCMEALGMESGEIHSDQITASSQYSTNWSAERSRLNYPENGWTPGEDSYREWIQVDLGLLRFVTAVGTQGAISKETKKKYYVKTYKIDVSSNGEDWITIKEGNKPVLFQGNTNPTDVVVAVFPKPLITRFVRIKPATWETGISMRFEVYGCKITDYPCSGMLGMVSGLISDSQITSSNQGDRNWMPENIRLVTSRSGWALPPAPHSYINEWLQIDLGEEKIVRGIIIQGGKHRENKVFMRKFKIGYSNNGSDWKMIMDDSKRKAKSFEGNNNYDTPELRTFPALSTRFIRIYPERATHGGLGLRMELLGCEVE

Molecule: ranibizumab
- time to reach the retinal tissue after eye drops [1]: 3 to 7 days
- distribution in cross-section of the ocular retinal tissue [2]: mostly present near the sclera
- vascular leakage compared to the vehicle group (vascular leakage): somewhat reduced
- patients with macular degeneration showing response (macular degeneration; at the time of development): about 90%
- responding patients showing a therapeutic effect, such as eyesight improvement (macular degeneration; human, in vivo): 30%
- inhibition of (neo)vascularization in comparison with the vehicle group [3]: about 31%
- degree of neovascularization relative to vehicle group, in words [4]: the same degree of neovascularization
- neovessel reducing efficacy, in words [5]: no significant efficacy

Molecule: conbercept
- bioavailability at the time of applying eye drops [6]: less than 5%

Molecule: aflibercept
- increase in binding ability to VEGF-A (VEGF-A): 100 fold

B1: Sema3A: secreted class 3 semaphorin ligand binding to neuropilin (protein)
chain: NYQNGKNNVPRLKLSYKEMLESNNVITFNGLANSSSYHTFLLDEERSRLYVGAKDHIFSFDLVNIKDFQKIVWPVSYTRRDECKWAGKDILKECANFIKVLKAYNQTHLYACGTGAFHPICTYIEIGHHPEDNIFKLENSHFENGRGKSPYDPKLLTASLLIDGELYSGTAADFMGRDFAIFRTLGHHHPIRTEQHDSRWLNDPKFISAHLISESDNPEDDKVYFFFRENAIDGEHSGKATHARIGQICKNDFGGHRSLVNKWTTFLKARLICSVPGPNGIDTHFDELQDVFLMNFKDPKNPVVYGVFTTSSNIFKGSAVCMYSMSDVRRVFLGPYAHRDGPNYQWVPYQGRVPYPRPGTCPSKTFGGFDSTKDLPDDVITFARSHPAMYNPVFPMNNRPIVIKTDVNYQFTQIVVDRVDAEDGQYDVMFIGTDVGTVLKVVSIPKETWYDLEEVLLEEMTVFREPTAISAMELSTKQQQLYIGSTAGVAQLPLHRCDIYGKACAECCLARDPYCAWDGSACSRYFPTAKRRTRRQDIRNGDPLTHCSDLHHDNHHGHSPEERIIYGVENSSTFLECSPKSQRALVYWQFQRRNEERKEEIRVDDHIIRTDQGLLLRSLQQKDSGNYLCHAVEHGFIQTLLKVTLEVIDTEHLEELLHKDDDGDGSKTKEMSNSMTPSQKVWYRDFMQLINHPNLNTMDEFCEQVWKRDRKQRRQRPGHTPGNSNKWKHLQENKKGRNRRTHEFERAPRSV
- Kd (neuropilin 1 (NRP 1)): 27.9 nM
